Consider seven compounds from patent US20240190889A1, “NEW CYCLOPENTA-THIENO-DIAZEPINE DERIVATIVES AS GABA A GAMMA1 POSITIVE ALLOSTERIC MODULATORS” (Hoffmann-La Roche Inc., priority 2021, published 2024).

Experiment [1] has as its target h-GABA-A α2β2γ1 receptor expressed in Xenopus laevis oocytes (Homo sapiens (Human), UniProt P47869+Q8N1C3). Description: Two-electrode voltage clamp electrophysiology in Xenopus oocytes expressing GABAA receptors. Type of experiment: cell-based. The note with it: for Efficacy (GABA)%: % modulation of GABA EC20 = 100*(Fold increase-1), compound at 30-fold Ki α2β2γ1; for Fold increase h-GABA-A α2β2γ1 oocyte @ 30-fold Ki: GABA EC20, test compound at approx. 30-fold its Ki α2β2γ1, at least 3 oocytes. An excerpt: Functional Expression of GABAA Receptors:
Xenopus Oocytes Preparation
Xenopus laevis oocytes at maturation stages V-VI were used for the expression of cloned mRNA encoding GABAA receptor subunits. Oocytes ready for RNA micro-injection were bought from Ecocyte, Castrop-Rauxel, Germany and stored in modified Barth's medium (composition in mM: NaCl 88, KCl 1, NaHCO3 2.4, HEPES 10, MgSO4 0.82, CaNO3 0.33, CaCl2 0.33, pH=7.5) at 20 C. until the experiment.
Xenopus Oocytes Microinjection
Oocytes were plated in 96-well plates for microinjection using the Roboinject automated instrument (MultiChannelSystems, Reutlingen, Germany). Approximately 50 nL of an aqueous solution containing the RNA transcripts for the subunits of the desired GABAA receptor subtype was injected into each oocyte. […] Oocytes were kept in modified Barth's medium (composition in mM: NaCl 88, KCl 1, NaHCO3 […], HEPES 10, MgSO4 0.82, CaNO3 0.33, CaCl2 0.33, pH=7.5) at 20° C. until the experiment.
Electrophysiological experiments were performed using the Roboocyte instrument (MultiChannelSystems, Reutlingen, Germany) on days 3 to 5 after the micro-injection of mRNA. During the experiment the oocytes were constantly superfused by a solution containing (in mM) NaCl 90, KCl 1, HEPES 5, MgCl: 1, CaCl, 1 (pH 7.4). Oocytes were impaled by two glass microelectrodes (resistance: 0.5-0.8 MS2) which were filled with a solution containing KCl 1M +K-acetate 1.5 M and voltage-clamped to −80 mV. The recordings were performed at room temperature using the Roboocyte two-electrode voltage clamp system (Multichannelsystem). After an initial equilibration period of 1.5 min GABA was added for 1.5 min at a concentration evoking approximately 20% of a maximal current response (EC20). After another rest interval of 2.5 min GABA was again added evoking a response of similar amplitude and shape. […] Current traces were recorded at a digitization rate of 10 Hz during and shortly before and after the GABA application.
Each compound and concentration was tested on at least 3 oocytes. Different oocytes were used for different compound concentrations.
For the analysis, the digitized current traces of the first and second GABA response were superimposed and, if necessary, rescaled to equal maximal amplitudes. The ratio between the two responses during the time interval of test compound application was calculated point by point. The extremum of the resulting “ratio trace” was taken as the efficacy (“Fold increase”) of the compound expressed as “% modulation of GABA EC” (100* (Fold increase-1)).
For orientation: Two-electrode voltage clamp holds a large cell at a set potential and records current.

Experiment [2] deals with human GABAA α1β3γ2 receptor (Homo sapiens (Human), UniProt P14867+P18507). The experiment in a line: Radioligand binding assay, competition for [3H]Flumazenil, γ2-containing GABAA subtypes. The note with it: for γ2/γ1 Selectivity Ratio: Ki α1β3γ2 (nM)/Ki α2β2γ1 (nM); for LogSel: Log[Ki α1β3γ2 (nM)/Ki α2β2γ1 (nM)]. As to the method:
Membrane Preparation and Binding Assay for γ2-containing GABAA Subtypes
The affinity of compounds at GABAA γ2 subunit-containing receptors was measured by competition for [^3H]Flumazenil (81.1 Ci/mmol; Roche) binding to HEK293F cells expressing human (transiently transfected) receptors of composition α1β3γ2.
Harvested pellets from HEK293F cells expressing the different GABAA γ2 receptor subtypes were resuspended in Mannitol Buffer pH 7,2-7,4 and processed as described above for the cells expressing the GABAA γ1 subunit-containing receptors.
Assays were incubated to equilibrium for 1 hour at 4° C, and harvested onto GF/C uni-filters (Packard) by filtration using a Packard harvester and washing with ice-cold wash buffer (50 mM Tris; pH 7.5). After anhydrousing, filter-retained radioactivity was detected by liquid scintillation counting. Ki values were calculated using Excel-Fit (Microsoft) and are the means of two determinations.

Experiment [3] has as its target human GABAA α2β2γ1 receptor (Homo sapiens (Human), UniProt P47869+Q8N1C3). The experiment in a line: Radioligand binding assay, competition for [3H]RO7239181, γ1-containing GABAA subtypes. As to the method:
Membrane Preparation and Binding Assay for γ1-containing GABAA Subtypes
The affinity of compounds at GABAA γ1 subunit-containing receptors was measured by competition for [^3H]RO7239181 (67.3 Ci/mmol: Roche) binding to membranes from HEK293F cells (ThermoFisher R79007) expressing human (transiently transfected) receptors of composition α5β2γ1, α2β2γ1, α1β2γ1.
Harvested pellets from HEK293F cells expressing the different GABAA receptor subtypes were resuspended in Mannitol Buffer pH 7.2-7.4 (Mannitol 0.29 M, Tricthylamine 10 mM. Acetic acid 10 mM. EDTA 1 mM plus protease inhibitors (20 tablets Complete. Roche Diagnostics Cat. No. 05 056 489 001 per liter)), washed two times and then resuspended at 1:10 to 1:15 dilution in the same buffer. Cell disruption was performed by stirring the suspension in a Parr vessel #4637 at 435 psi for 15 minutes, and then the suspensions were centrifuged at 1000×g for 15 minutes at 4° C. (Beckman Avanti J-HC: rotor JS-4.2). The supernatant (S1) was transferred in a 21 Schott flask and the pellet (P1) was resuspended with Mannitol Buffer up to 175 ml. The resuspended pellet was transferred into a 250 ml Corning centrifugal beaker and centrifuged at 1500 ×g for 10 minutes at 4° C. (Beckman Avanti J-HC: rotor JS-4.2). The supernatant (S1) was then transferred in the 21 Schott flask and the pellet was discarded. The supernatants (S1) were centrifuged in 500ml Beckman polypropylene centrifugal beaker at 15 000×g for 30 minutes at 4° C. (Beckman Avanti J-20 XP; rotor JLA-10.500). The pellet (P2) was resuspended with Mannitol Buffer 1:1 and frozen at −80° C. The supernatant (S2) was centrifuged in 100 ml Beckman polypropylene centrifugal tubes at 48000×g for 50 minutes at 4 °C (Beckman Avanti J-20 XP: rotor JA-18). The supernatant (S3) was discarded and the pellet (P3) was resuspended with 1:1 Mannitol Buffer. The P2 and P3 protein concentration was determined with the BIORAD Standard assay method with bovine serum albumin as standard and measured on the NANO-Drop 1000. The membrane suspension was aliquots (500μl per tube) and stored at −80° C. until required.
Membrane homogenates were resuspended and polytronised (Polytron PT1200E Kinematica AG) in Potassium Phosphate 10 mM, KCl 100 mM binding buffer at pH 7.4 to a final assay concentration determined with a previous experiment.
Radioligand binding assays were carried out in a volume of 200 μL (96-well plates) which contained 100 μL of cell membranes. […] Assays were incubated to equilibrium for 1 hour at 4° C. and then, membranes were filtered onto unifilter (96-well white microplate with bonded GF/C filters preincubated 20-50 minutes in 0.3% Polyethylenimine) with a Filtermate 196 harvester (Packard BioScience) and washed 4 times with cold Potassium Phosphate 10 mM pH 7.4. KCl 100 mM binding buffer. After anhydrousing, filter-retained radioactivity was detected by liquid scintillation counting. Ki values were calculated using Excel-Fit (Microsoft) and are the means of two determinations.

[4] abbreviates: read-out: Ki h-GABAA α2β2γ1, membranes from HEK293F cells, [3H]RO7239181 20-30 nM, mean of two determinations.

Like-named read-outs stand apart in the source and are kept apart here.

Take `C[C@@H]1N=C(c2c(F)cccc2Cl)c2c(sc3c2C[C@@H](C(F)F)C3)-n2c(-c3cccnn3)nnc21` [Example 12, (7S,13R)-9-(2-chloro-6-fluoro-phenyl)-13-(difluoromethyl)-7-methyl-3-pyridazin-3-yl-16-thia-2,4,5,8-tetrazatetracyclo [8.6.0.02,6.011,15]hexadeca-1(10),3,5,8,11(15)-pentaene]: in experiment [1], the “Efficacy (GABA)%” value was determined as 62% and the “Fold increase h-GABA-A α2β2γ1 oocyte @ 30-fold Ki” value was 1.62. Moreover, in experiment [2], the Ki came to 2.36 µM, the “γ2/γ1 Selectivity Ratio” value is listed as 176.0 and the LogSel worked out at 2.25. The Ki in experiment [3] is 0.0134 µM. Besides, the Ki in experiment [3] (setting [4]) was 0.0134 µM.
For `Cc1nnc2n1-c1sc3c(c1C(c1c(F)cccc1Cl)=NC2)C[C@@H](C(F)F)C3` [Example 4, (13R)-9-(2-chloro-6-fluoro-phenyl)-13-(difluoromethyl)-3-methyl-16-thia-2,4,5,8-tetrazatetracyclo [8.6.0.02,6.011,15]hexadeca-1(10),3,5,8,11(15)-pentaene], in experiment [1], the “Efficacy (GABA)%” value came to 51% and the “Fold increase h-GABA-A α2β2γ1 oocyte @ 30-fold Ki” value amounted to 1.51. Further, in experiment [2], the Ki worked out at 0.343 µM, the “γ2/γ1 Selectivity Ratio” value was 74.8 and the LogSel was 1.87. In experiment [3], this compound yielded a Ki of 0.0046 µM. Moreover, the Ki in experiment [3] (setting [4]) stood at 0.0046 µM.
As to `Cc1nnc2n1-c1sc3c(c1C(c1c(F)cccc1F)=N[C@H]2C)C[C@@H](C(F)F)C3` [Example 5, (7S,13R)-13-(difluoromethyl)-9-(2,6-difluorophenyl)-3,7-dimethyl-16-thia-2,4,5,8-tetrazatetracyclo [8.6.0.02,6.011,15]hexadeca-1(10),3,5,8,11(15)-pentaene], in experiment [1], the “Efficacy (GABA)%” value is reported as 41% and the “Fold increase h-GABA-A α2β2γ1 oocyte @ 30-fold Ki” value is 1.41. Besides, in experiment [2], the Ki amounted to 0.228 µM, the “γ2/γ1 Selectivity Ratio” value came out at 66.5 and the LogSel came out at 1.82. The compound also had an inhibitory constant (Ki) in experiment [3] of 0.0034 µM. Further, the Ki in experiment [3] (setting [4]) came to 0.0034 µM.
As to `Cc1nc2n(n1)-c1sc3c(c1C(c1c(F)cccc1F)=N[C@H]2C)C[C@@H](C(F)F)C3` [Example 16, (7S,13R)-13-(difluoromethyl)-9-(2,6-difluorophenyl)-4,7-dimethyl-16-thia-2,3,5,8-tetrazatetracyclo [8.6.0.02,6.011,15]hexadeca-1(10),3,5,8,11(15)-pentaene], in experiment [1], the “Efficacy (GABA)%” value was found to be 32% and the “Fold increase h-GABA-A α2β2γ1 oocyte @ 30-fold Ki” value is reported as 1.32. In experiment [2], the Ki was 0.448 µM, the “γ2/γ1 Selectivity Ratio” value is reported as 191.1 and the LogSel amounted to 2.28. The Ki in experiment [3] amounted to 0.0023 µM. Further, the Ki in experiment [3] (setting [4]) was 0.0023 µM.
On to `Cc1nc2n(n1)-c1sc3c(c1C(c1c(F)cccc1F)=N[C@H]2C)C[C@H](C(F)F)C3` [Example 17, (7S,13S)-13-(difluoromethyl)-9-(2,6-difluorophenyl)-4,7-dimethyl-16-thia-2,3,5,8-tetrazatetracyclo [8.6.0.02,6.011,15]hexadeca-1(10),3,5,8,11(15)-pentaene], for which, in experiment [1], the “Efficacy (GABA)%” value came to 25% and the “Fold increase h-GABA-A α2β2γ1 oocyte @ 30-fold Ki” value is on record as 1.25. For the same compound, in experiment [2], affinity was put at a Ki of 6.64 µM, the “γ2/γ1 Selectivity Ratio” value is recorded as 114.8 and the LogSel was determined as 2.06. In experiment [3], the Ki turned out to be 0.0579 µM. Moreover, the Ki in experiment [3] (setting [4]) stood at 0.0579 µM.
For the compound `Cc1nnc2n1-c1sc3c(c1C(c1c(F)cccc1Cl)=N[C@H]2C)C[C@@H](C(F)F)C3` [Example 9, (7S,13R)-9-(2-chloro-6-fluoro-phenyl)-13-(difluoromethyl)-3,7-dimethyl-16-thia-2,4,5,8-tetrazatetracyclo [8.6.0.02,6.011,15]hexadeca-1(10),3,5,8,11(15)-pentaene], in experiment [1], the “Efficacy (GABA)%” value turned out to be 38% and the “Fold increase h-GABA-A α2β2γ1 oocyte @ 30-fold Ki” value came out at 1.38. In experiment [2], the affinity corresponds to a Ki of 0.366 µM, the “γ2/γ1 Selectivity Ratio” value is recorded as 101.3 and the LogSel was 2.01. Also, the Ki in experiment [3] amounted to 0.0036 µM. Besides, the Ki in experiment [3] (setting [4]) is 0.0036 µM.
Turning to `C[C@@H]1N=C(c2c(F)cccc2Cl)c2c(sc3c2C[C@@H](C(F)F)C3)-n2c(C3CC3)nnc21` [Example 11, (7S,13R)-9-(2-chloro-6-fluoro-phenyl)-3-cyclopropyl-13-(difluoromethyl)-7-methyl-16-thia-2,4,5,8-tetrazatetracyclo [8.6.0.02,6.011,15]hexadeca-1(10),3,5,8,11(15)-pentaene], in experiment [1], the “Efficacy (GABA)%” value is on record as 44% and the “Fold increase h-GABA-A α2β2γ1 oocyte @ 30-fold Ki” value turned out to be 1.44. In experiment [2], the affinity corresponds to a Ki of 1.12 µM, the “γ2/γ1 Selectivity Ratio” value is 108.6 and the LogSel was 2.04. In addition, the Ki in experiment [3] is 0.0103 µM. For the same compound, the Ki in experiment [3] (setting [4]) amounted to 0.0103 µM.

Broadly, the Ki is a measure of affinity in units of concentration, obtained from inhibition or displacement.
